Results published in patent US10875875B2, “Propionic acid derivatives and methods of use thereof” (Aviara Pharmaceuticals, Inc., priority 2017, dated 2020).

Biological target: α4β1 (Homo sapiens, UniProt P05556+P13612)
Experiment: α4β1 integrin inhibition, IC50
Assay type: binding
Conditions: read-out: α4β1 IC50

Chain of α4β1 (P13612 34-1032): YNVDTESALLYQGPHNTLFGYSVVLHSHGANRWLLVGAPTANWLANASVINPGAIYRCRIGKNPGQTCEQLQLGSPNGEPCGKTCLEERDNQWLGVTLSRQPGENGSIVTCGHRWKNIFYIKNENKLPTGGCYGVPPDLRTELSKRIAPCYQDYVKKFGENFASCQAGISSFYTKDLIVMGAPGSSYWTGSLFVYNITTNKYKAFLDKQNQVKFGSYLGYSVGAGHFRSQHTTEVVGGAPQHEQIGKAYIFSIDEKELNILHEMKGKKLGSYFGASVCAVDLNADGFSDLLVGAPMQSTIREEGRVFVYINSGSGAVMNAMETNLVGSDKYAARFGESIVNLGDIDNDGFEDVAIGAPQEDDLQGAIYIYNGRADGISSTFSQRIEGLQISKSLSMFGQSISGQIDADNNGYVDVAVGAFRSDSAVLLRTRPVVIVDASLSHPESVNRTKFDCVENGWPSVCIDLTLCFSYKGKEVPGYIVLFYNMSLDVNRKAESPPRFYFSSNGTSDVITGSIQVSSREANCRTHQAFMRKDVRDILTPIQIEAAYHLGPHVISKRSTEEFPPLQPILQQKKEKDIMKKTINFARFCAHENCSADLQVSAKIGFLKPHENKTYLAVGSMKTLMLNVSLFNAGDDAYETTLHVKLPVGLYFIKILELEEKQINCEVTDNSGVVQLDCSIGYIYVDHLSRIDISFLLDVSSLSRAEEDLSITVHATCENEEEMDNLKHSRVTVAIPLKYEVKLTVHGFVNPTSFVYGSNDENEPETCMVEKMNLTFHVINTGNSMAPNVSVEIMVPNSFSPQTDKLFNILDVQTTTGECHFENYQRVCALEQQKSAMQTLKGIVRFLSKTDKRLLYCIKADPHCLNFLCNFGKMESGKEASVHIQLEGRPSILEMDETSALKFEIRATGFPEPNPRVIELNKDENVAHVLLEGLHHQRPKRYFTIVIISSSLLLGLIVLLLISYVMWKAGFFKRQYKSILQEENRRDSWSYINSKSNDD
Chain of α4β1 (P05556 21-798): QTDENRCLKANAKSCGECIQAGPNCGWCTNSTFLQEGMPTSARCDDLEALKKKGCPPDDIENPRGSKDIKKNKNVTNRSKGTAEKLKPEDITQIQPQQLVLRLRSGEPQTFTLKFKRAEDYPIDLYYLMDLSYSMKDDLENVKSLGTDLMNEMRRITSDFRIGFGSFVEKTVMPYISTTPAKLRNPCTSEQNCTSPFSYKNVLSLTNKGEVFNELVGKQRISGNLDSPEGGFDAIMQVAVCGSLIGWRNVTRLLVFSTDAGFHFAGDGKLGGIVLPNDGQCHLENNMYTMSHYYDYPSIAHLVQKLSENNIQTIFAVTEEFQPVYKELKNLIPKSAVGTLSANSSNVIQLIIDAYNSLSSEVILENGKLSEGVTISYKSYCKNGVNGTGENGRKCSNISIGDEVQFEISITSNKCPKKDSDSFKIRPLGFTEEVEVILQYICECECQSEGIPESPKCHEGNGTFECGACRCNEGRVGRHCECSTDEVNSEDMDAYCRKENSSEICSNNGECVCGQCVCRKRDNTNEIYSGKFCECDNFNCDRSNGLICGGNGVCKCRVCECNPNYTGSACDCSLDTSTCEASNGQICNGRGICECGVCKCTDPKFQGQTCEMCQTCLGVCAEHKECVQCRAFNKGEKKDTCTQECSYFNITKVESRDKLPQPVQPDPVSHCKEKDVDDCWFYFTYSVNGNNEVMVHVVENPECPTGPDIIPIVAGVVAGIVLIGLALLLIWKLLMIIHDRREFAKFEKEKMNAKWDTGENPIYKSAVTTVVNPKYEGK

SMILES	IC50 [µM]
Cc1cn(C)c(=O)c(NC(=O)N[C@@H](CC(=O)O)c2cccc(-c3ccc(F)cc3)c2)c1O [1-466, sodium (S)-3-(3-(1,5-dimethyl-4-oxido-2-oxo-1,2-dihydropyridin-3-yl)ureido)-3-(4′-fluorobiphenyl-3-yl)propanoate]	< 0.02
Cc1cccc(C)c1-c1ccc([C@H](CC(=O)O)NC(=O)Nc2c(O)cc(C)n(C)c2=O)cc1 [1-638, sodium (S)-3-(3-(1,6-dimethyl-4-oxido-2-oxo-1,2-dihydropyridin-3-yl)ureido)-3-(2′,6′-dimethylbiphenyl-4-yl)propanoate]	< 0.2
COc1cccc(-c2cccc([C@H](CC(=O)O)NC(=O)Nc3c(O)ccn(C)c3=O)c2)c1F [1-509, sodium (S)-3-(2′-fluoro-3′-methoxybiphenyl-3-yl)-3-(3-(1-methyl-4-oxido-2-oxo-1,2-dihydropyridin-3-yl)ureido)propanoate]	< 0.02
Cn1ccc(O)c(NC(=O)N[C@@H](CC(=O)O)c2cccc(-c3cnccn3)c2)c1=O [15-2, sodium (S)-3-(3-(1-methyl-4-oxido-2-oxo-1,2-dihydropyridin-3-yl)ureido)-3-(3-(pyrazin-2-yl)phenyl)propanoate]	< 0.02
Cc1cn(C)c(=O)c(NC(=O)N[C@@H](CC(=O)O)c2cccc(-c3ccccc3)c2C)c1O [1-500, sodium (S)-3-(3-(1,5-dimethyl-4-oxido-2-oxo-1,2-dihydropyridin-3-yl)ureido)-3-(2-methylbiphenyl-3-yl)propanoate]	> 0.2
Cn1ccc(O)c(NC(=O)N[C@@H](CC(=O)O)c2cccc(-n3ccnc3)c2)c1=O [1-539, sodium (S)-3-(3-(1H-imidazol-1-yl)phenyl)-3-(3-(1-methyl-4-oxido-2-oxo-1,2-dihydropyridin-3-yl)ureido)propanoate]	< 0.02
Cc1ccc([C@H](CC(=O)O)NC(=O)Nc2c(O)ccn(C)c2=O)cc1-c1c(C)cccc1C [1-545, sodium (S)-3-(3-(1-methyl-4-oxido-2-oxo-1,2-dihydropyridin-3-yl)ureido)-3-(2′,6,6′-trimethylbiphenyl-3-yl)propanoate]	< 0.02
O=C(O)C[C@H](NC(=O)Nc1c(O)cc[nH]c1=O)c1cccc(-c2ccc(F)cc2F)c1 [1-494, sodium (S)-3-(2′,4′-difluorobiphenyl-3-yl)-3-(3-(4-oxido-2-oxo-1,2-dihydropyridin-3-yl)ureido)propanoate]	< 0.02
Cn1ccc(O)c(NC(=O)N[C@@H](CC(=O)O)c2cccc(-c3cccc(Cl)c3)c2)c1=O [1-506, sodium (S)-3-(3′-chlorobiphenyl-3-yl)-3-(3-(1-methyl-4-oxido-2-oxo-1,2-dihydropyridin-3-yl)ureido)propanoate]	< 0.02
Cc1cc(-c2c(C)cccc2C)cc([C@H](CC(=O)O)NC(=O)Nc2c(O)ccn(C)c2=O)c1 [1-573, sodium (S)-3-(3-(1-methyl-4-oxido-2-oxo-1,2-dihydropyridin-3-yl)ureido)-3-(2′,5,6′-trimethylbiphenyl-3-yl)propanoate]	< 0.02
Cc1ccccc1-c1cccc([C@H](CC(=O)O)NC(=O)Nc2c(O)ccn(C)c2=O)c1 [1-598, sodium (S)-3-(3-(1-methyl-4-oxido-2-oxo-1,2-dihydropyridin-3-yl)ureido)-3-(2′-methylbiphenyl-3-yl)propanoate]	< 0.02
Cn1ccc(O)c(NC(=O)N[C@@H](CC(=O)O)c2ccc(-c3cccc(OC(F)(F)F)c3)s2)c1=O [1-601, sodium (S)-3-(3-(1-methyl-4-oxido-2-oxo-1,2-dihydropyridin-3-yl)ureido)-3-(5-(3-(trifluoromethoxy)phenyl)thiophen-2-yl)propanoate]	< 0.02
Cc1cn(C)c(=O)c(NC(=O)N[C@@H](CC(=O)O)c2cccc(-c3ccc(F)cc3F)c2)c1O [1-446, sodium (S)-3-(2′,4′-difluorobiphenyl-3-yl)-3-(3-(1,5-dimethyl-4-oxido-2-oxo-1,2-dihydropyridin-3-yl)ureido)propanoate]	< 0.02
Cc1cccc(C)c1-c1cc([C@H](CC(=O)O)NC(=O)Nc2c(O)cc(C)n(C)c2=O)ccc1F [1-578, sodium (S)-3-(3-(1,6-dimethyl-4-oxido-2-oxo-1,2-dihydropyridin-3-yl)ureido)-3-(6-fluoro-2′,6′-dimethylbiphenyl-3-yl)propanoate]	< 0.02

Further lines, results first:

IC50 [µM]	SMILES
< 0.02	Cc1cn(C)c(=O)c(NC(=O)N[C@@H](CC(=O)O)c2ccc(-c3ccc(F)cc3F)cc2)c1O [1-623, sodium (S)-3-(2′,4′-difluorobiphenyl-4-yl)-3-(3-(1,5-dimethyl-4-oxido-2-oxo-1,2-di hydropyridin-3-yl)ureido)propanoate]
< 0.02	Cn1cc(-c2cccc([C@H](CC(=O)O)NC(=O)Nc3c(O)ccn(C)c3=O)c2)cn1 [1-548, sodium (S)-3-(3-(1-methyl-1H-pyrazol-4-yl)phenyl)-3-(3-(1-methyl-4-oxido-2-oxo-1,2-dihydropyridin-3-yl)ureido)propanoate]
< 0.02	Cn1ccc(O)c(NC(=O)N[C@@H](CC(=O)O)c2ccc(-c3ccc(F)cc3F)cc2)c1=O [1-621, sodium (S)-3-(2′,4′-difluorobiphenyl-4-yl)-3-(3-(1-methyl-4-oxido-2-oxo-1,2-dihydropyridin-3-yl)ureido)propanoate]
< 0.02	CCc1ccccc1-c1cccc([C@H](CC(=O)O)NC(=O)Nc2c(O)c(C)cn(C)c2=O)c1 [1-492, sodium (S)-3-(3-(1,5-dimethyl-4-oxido-2-oxo-1,2-dihydropyridin-3-yl)ureido)-3-(2′-ethylbiphenyl-3-yl)propanoate]
< 0.2	Cc1cn(C)c(=O)c(NC(=O)NC(CC(=O)O)c2ccc(=O)n(-c3ccccc3)c2)c1O (stereo not drawn) [1-463, sodium 3-(3-(1,5-dimethyl-4-oxido-2-oxo-1,2-dihydropyridin-3-yl)ureido)-3-(6-oxo-1-phenyl-1,6-dihydropyridin-3-yl)propanoate]
< 0.02	Cn1ccc(O)c(NC(=O)N[C@@H](CC(=O)O)c2cc(-c3cccc(Cl)c3)cs2)c1=O [1-530, sodium (S)-3-(4-(3-chlorophenyl)thiophen-2-yl)-3-(3-(1-methyl-4-oxido-2-oxo-1,2-dihydropyridin-3-yl)ureido)propanoate]
< 0.02	Cn1ccc(O)c(NC(=O)N[C@@H](CC(=O)O)c2cc(F)cc(-c3cccc(OC(F)(F)F)c3)c2)c1=O [1-607, sodium (S)-3-(5-fluoro-3′-(trifluoromethoxy)biphenyl-3-yl)-3-(3-(1-methyl-4-oxido-2-oxo-1,2-dihydropyridin-3-yl)ureido)propanoate]
< 0.02	Cc1noc(C)c1-c1cccc([C@H](CC(=O)O)NC(=O)Nc2c(O)cc(C)n(C)c2=O)c1 [1-609, sodium (S)-3-(3-(1,6-dimethyl-4-oxido-2-oxo-1,2-dihydropyridin-3-yl)ureido)-3-(3-(3,5-dimethylisoxazol-4-yl)phenyl)propanoate]
< 0.2	Cc1cccc(-c2cccc([C@H](CC(=O)O)NC(=O)Nc3c(O)c(C)cn(C)c3=O)c2)c1 [1-451, sodium (S)-3-(3-(1,5-dimethyl-4-oxido-2-oxo-1,2-dihydropyridin-3-yl)ureido)-3-(3′-methylbiphenyl-3-yl)propanoate]
< 0.2	COc1ccc(-c2cccc([C@H](CC(=O)O)NC(=O)Nc3c(O)c(C)cn(C)c3=O)c2)cc1 [1-645, sodium (S)-3-(3-(1,5-dimethyl-4-oxido-2-oxo-1,2-dihydropyridin-3-yl)ureido)-3-(4′-methoxybiphenyl-3-yl)propanoate]
